US20110178117A1 (Merck Sharp & Dohme Corp., priority 2008, published 2011)

Biological target: T1, recombinant human mGluR2 (Homo sapiens, UniProt Q14416)
T1 construct: expressed in transfected cells
Assay: FLIPR Ca2+ mobilization assay, potentiation of glutamate response
Type: cell-based
Settings: CHO dhfr- cells expressing human mGluR2 and Gα16; potentiation after EC20 glutamate (900 nM); read-out: Representative FLIPR EC50 Values: EC50
Protocol: The compounds of the present invention may be tested in a fluorescence laser imaging plate reader (FLIPR) based assay. This assay is a common functional assay to monitor Ca^2+ mobilization in whole cells expressing recombinant receptor coupled with a promiscuous G-protein. CHO dhfr-cells stably expressing recombinant human mGluR2 and Gα16 loaded with Fluo-4 AM (Invitrogen, Carlsbad Calif.) are treated with dose responses of compounds and the Ca^2+ response is monitored on a FLIPR384 (Molecular Devices, Sunnydale Calif.) for agonist activity. The potentiation response is monitored after a subsequent addition of an EC20 concentration of glutamate (900 nM). The maximum calcium response at each concentration of compound for agonist or potentiation are plotted as dose responses and the curves are fitted with a four parameters logistic equation giving EC50 and Hill coefficient using the iterative non linear curve fitting software program.

T1 sequence (Q14416 19-872): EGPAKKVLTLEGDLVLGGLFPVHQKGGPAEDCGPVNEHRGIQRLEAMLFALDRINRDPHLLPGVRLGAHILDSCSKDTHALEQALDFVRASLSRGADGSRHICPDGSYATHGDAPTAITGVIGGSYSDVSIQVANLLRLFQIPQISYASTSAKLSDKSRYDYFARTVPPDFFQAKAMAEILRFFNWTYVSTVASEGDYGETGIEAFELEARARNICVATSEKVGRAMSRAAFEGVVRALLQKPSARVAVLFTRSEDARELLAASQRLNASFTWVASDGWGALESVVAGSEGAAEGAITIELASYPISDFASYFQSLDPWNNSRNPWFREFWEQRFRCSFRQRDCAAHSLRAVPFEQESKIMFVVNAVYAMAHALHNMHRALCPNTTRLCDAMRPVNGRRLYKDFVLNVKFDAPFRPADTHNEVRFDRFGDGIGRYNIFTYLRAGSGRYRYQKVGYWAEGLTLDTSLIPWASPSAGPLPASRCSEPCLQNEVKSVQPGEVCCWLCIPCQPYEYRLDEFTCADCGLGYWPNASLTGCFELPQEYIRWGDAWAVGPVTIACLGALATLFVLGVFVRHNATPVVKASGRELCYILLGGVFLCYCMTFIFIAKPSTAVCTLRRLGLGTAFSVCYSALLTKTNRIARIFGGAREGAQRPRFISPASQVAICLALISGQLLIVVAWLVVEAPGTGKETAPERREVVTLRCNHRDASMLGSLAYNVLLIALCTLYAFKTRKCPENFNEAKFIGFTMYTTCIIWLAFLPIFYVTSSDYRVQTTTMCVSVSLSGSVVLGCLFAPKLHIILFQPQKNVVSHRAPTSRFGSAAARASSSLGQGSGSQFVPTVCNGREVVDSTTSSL

| Compound | EC50 |
| --- | --- |
| CCCCCC[C@@H]1Cn2c(nc3ccccc32)O1 [Example 1-5, (2R)-2-hexyl-2,3-dihydro[1,3]oxazolo[3,2-a]benzimidazole] | 21 nM |
| CCCCCC[C@@H]1Cn2c(nc3cc(C#N)ccc32)O1 [Example 1-19, (2R)-2-hexyl-2,3-dihydro[1,3]oxazolo[3,2-a]benzimidazole-7-carbonitrile] | 11 nM |
| COCCCCC1Cn2c(nc3ccccc32)O1 (centres unmarked) [Example 1-21, 2-(4-methoxybutyl)-2,3-dihydrobenzo[d]oxazolo[3,2-a]imidazole] | 3120 nM |
| (R)-2-(6-fluorohexyl)-2,3-dihydrobenzo oxazolo[3,2-a]imidazole-7-carbonitrile [Example 1-31] | 68 nM |

Continued, values first:

| EC50 | Compound |
| --- | --- |
| 2140 nM | c1ccc2c(c1)nc1n2CC(CC2CCCCC2)O1 (centres unmarked) [Example 3-5, 2-(cyclohexylmethyl)-2,3-dihydro[1,3]oxazolo[3,2-a]benzimidazole] |
| 378 nM | CC(C)(C)OC(=O)N1CCCC(C2Cn3c(nc4ccccc43)O2)C1 (centres unmarked) [Example 3-7, tert-butyl 3-(2,3-dihydro[1,3]oxazolo[3,2-a]benzimidazole-2-yl)piperidine-1-carboxylate] |
| 622 nM | CCCCCCC1(C)Cn2c(nc3ccccc32)O1 (centres unmarked) [Example 4-2, 2-hexyl-2-methyl-2,3-dihydro[1,3]oxazolo[3,2-a]benzimidazole] |
| 2290 nM | CCCCCCC1(CC)Cn2c(nc3ccccc32)O1 (centres unmarked) [Example 4-3] |
